Where a chain is given by its changes, count along the chain named.
Key:
UL97 A594T = molecular target: T1, UL97 A594T (Human cytomegalovirus, UniProt Q68101, A594T); experiment: UL97 autophosphorylation protein kinase assay, A594T; format: biochemical
T1 construct: PCR reaction to generate the full length UL97; honey bee melittin secretion signal (N); made in house; host or cells: Sf21 insect cells, recombinant baculovirus (pMelBac C)
T1 sequence (Q68101 1-707 A594T): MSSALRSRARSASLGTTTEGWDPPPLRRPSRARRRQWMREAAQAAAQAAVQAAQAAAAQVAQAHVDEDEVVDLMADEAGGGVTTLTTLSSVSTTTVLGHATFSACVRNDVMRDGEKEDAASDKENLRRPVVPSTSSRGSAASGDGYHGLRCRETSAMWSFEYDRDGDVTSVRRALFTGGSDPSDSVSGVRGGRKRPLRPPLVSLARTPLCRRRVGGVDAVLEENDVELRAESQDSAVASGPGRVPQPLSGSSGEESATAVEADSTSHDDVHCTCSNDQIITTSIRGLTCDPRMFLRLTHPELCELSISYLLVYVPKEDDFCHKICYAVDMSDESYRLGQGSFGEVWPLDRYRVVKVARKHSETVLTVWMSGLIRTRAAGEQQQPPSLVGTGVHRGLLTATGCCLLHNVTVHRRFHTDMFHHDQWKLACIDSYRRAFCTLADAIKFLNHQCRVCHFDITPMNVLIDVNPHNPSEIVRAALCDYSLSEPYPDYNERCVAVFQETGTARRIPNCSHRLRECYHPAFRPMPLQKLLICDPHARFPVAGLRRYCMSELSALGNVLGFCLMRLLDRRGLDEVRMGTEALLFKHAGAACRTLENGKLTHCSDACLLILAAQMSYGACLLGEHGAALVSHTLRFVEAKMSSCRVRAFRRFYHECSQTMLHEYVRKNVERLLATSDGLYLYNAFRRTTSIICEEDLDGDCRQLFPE
Procedure: (§1) Analysis of the autophosphorylation of wild type and mutant UL97 protein species was performed by a standard protein kinase assay as previously described (46). Briefly, purified protein was added to 2× protein kinase buffer (100 mM Tris HCl, pH9.0, 20 mM MgCl2, 10 μM ATP, 4 mM DTT, 2 M NaCl) and 370 KBq [γ^32P] ATP (Amersham), made up to 20 μl with SDW and incubated at 37°C. The reactions were terminated by the addition of 2× SDS sample buffer followed by boiling for 3 minutes. The amount of radiolabelled phosphate incorporated by autophosphorylation was analysed by SDS-PAGE and measured using the Biorad Mulitanalyst. The protein kinase assays were initially performed for 2 to 60 minutes to determine the maximum rate of phosphate incorporation, all assays were then performed at the maximum rate which equated to 5 minutes.
(§2) Enzyme kinetic analysis was performed on the purified wild type and mutant UL97 protein species as above using increasing concentrations of ATP (2 μM to 20 μM). The amount of incorporated radiolabelled phosphate was plotted against the concentration of ATP in a Lineweaver Burke plot to determine the Km for ATP for each UL97 species. […]

UL97 L595F = molecular target: T2, UL97 L595F (Human cytomegalovirus, UniProt Q68101, L595F); experiment: UL97 autophosphorylation protein kinase assay, L595F; format: biochemical
T2 construct: PCR reaction to generate the full length UL97; honey bee melittin secretion signal (N); made in house; host or cells: Sf21 insect cells, recombinant baculovirus (pMelBac C)
T2 sequence (Q68101 1-707 L595F): T1 sequence (Q68101 1-707 A594T) with T594A, L595F
Procedure: as §1, §2

[1] = system: wild type and mutant UL97 proteins; experiment: UL97 autophosphorylation protein kinase assay, all UL97 species pooled; format: biochemical, human cytomegalovirus; details: maribavir 0.5 μM; every form of UL97 investigated (mutant and wild type)
Procedure: as §1, §2

HCMV = system: HCMV; parameters: method as in PMID 12121906; details: HCMV replication in vitro; cited from earlier work

| Compound | Km (UL97 A594T; A594T, read-out: Km for ATP) [µM] | Km (UL97 L595F; L595F, read-out: Km for ATP) [µM] | IC50 (UL97 A594T; A594T mutant) [nM] | IC50 (UL97 L595F; L595F mutant) [nM] | autophosphorylation as % of total phosphorylation of the wild type UL97 protein [1] | IC50 fold lower than that observed for GCV (HCMV) |
| --- | --- | --- | --- | --- | --- | --- |
| Nc1ncnc2c1ncn2[C@@H]1O[C@H](COP(=O)(O)OP(=O)(O)OP(=O)(O)O)[C@@H](O)[C@H]1O [ATP] | 40 ± 4.2 | 31 ± 4.5 |  |  |  |  |
| CC(C)Nc1nc2cc(Cl)c(Cl)cc2n1[C@H]1O[C@@H](CO)[C@H](O)[C@@H]1O [maribavir, 5,6-dichloro-2-(isopropylamino)-1-beta-L-ribofuranosyl-1H-benzimidazole] |  |  | 31 | 28 | below 10% | 4-to 10 fold |
